Converted amounts (≈) assume the structure as drawn.
How the values were obtained:
[1] = system: S. aureus VRSA; assay: MIC, broth microdilution, vancomycin-resistant S. aureus (VRSA); format: cell-based, Staphylococcus aureus; details: for MIC: Staphylococcus aureus VRSA, read-out: MIC; for MIC-fold improvement vs. vancomycin: VRSA, ratio of MIC of vancomycin and MIC of analogue
How it was run: (§1)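 MIC values come from broth microdilution run to CLSI susceptibility-testing standards. Ultrapure water and uninoculated broth served as controls. In one series, vancomycin at a final 10 μM was co-dosed with the analogue or comparator antibiotic.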

[2] = system: E. faecalis VRE 37; assay: MIC, broth microdilution, vancomycin-resistant E. faecalis VRE 37 (VanA); format: cell-based, Enterococcus faecalis; details: for MIC: Enterococcus faecalis VRE 37 (vancomycin-resistant), read-out: MIC; for MIC-fold improvement vs. vancomycin: VRE 37, ratio of MIC of vancomycin and MIC of analogue
How it was run: as §1

[3] = system: MRSA KS2; assay: MIC, broth microdilution, MRSA KS2; format: cell-based, Staphylococcus aureus; details: for MIC-fold improvement vs. vancomycin: MRSA KS2, ratio of MIC of vancomycin and MIC of analogue; for MIC: Staphylococcus aureus MRSA KS2, read-out: MIC
How it was run: as §1

[4] = system: MRSA KS1; assay: MIC, broth microdilution, MRSA KS1; format: cell-based, Staphylococcus aureus; details: for MIC-fold improvement vs. vancomycin: MRSA KS1, ratio of MIC of vancomycin and MIC of analogue; for MIC: Staphylococcus aureus MRSA KS1, read-out: MIC
How it was run: as §1

[5] = system: L1210, CEM and HeLa cell lines; assay: Cytostatic activity, average or summary over L1210, CEM and HeLa; format: cell-based; details: average of L1210, CEM and HeLa; read-out: Toxicity (IC50) Average
How it was run: (§2)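 Coulter counter cell counts after 37°C culture with compound; IC50 = concentration giving 50% growth inhibition vs negative control. Incubation: L1210 2 d, CEM 3 d, HeLa 4 d. Suspension density before mixing with an equal volume of dilution: 300,000–500,000 cells/mL.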

[6] = system: human cervix carcinoma (HeLa) cells; assay: Cytostatic activity, HeLa cell proliferation; format: cell-based; details: mean ± SD of three experiments; highest concentration tested 250 µM; 4 days; read-out: Toxicity (IC50) HeLa
How it was run: as §2

[7] = system: MRSA KS89; assay: MIC, broth microdilution, MRSA KS89; format: cell-based, Staphylococcus aureus; details: for MIC-fold improvement vs. vancomycin: MRSA KS8, ratio of MIC of vancomycin and MIC of analogue; for MIC: Staphylococcus aureus MRSA KS8, read-out: MIC
How it was run: as §1

[8] = system: human T-lymphocyte (CEM) cells; assay: Cytostatic activity, CEM cell proliferation; format: cell-based; details: mean ± SD of three experiments; highest concentration tested 250 µM; 3 days; read-out: Toxicity (IC50) CEM
How it was run: as §2

[9] = system: MRSA KS6; assay: MIC, broth microdilution, MRSA KS6; format: cell-based, Staphylococcus aureus; details: for MIC-fold improvement vs. vancomycin: MRSA KS6, ratio of MIC of vancomycin and MIC of analogue; for MIC: Staphylococcus aureus MRSA KS6, read-out: MIC
How it was run: as §1

[10] = system: E. faecalis VRE 29; assay: MIC, broth microdilution, vancomycin-resistant E. faecalis VRE 29 (VanA); format: cell-based, Enterococcus faecalis; details: for MIC: Enterococcus faecalis VRE 29 (vancomycin-resistant), read-out: MIC; for MIC-fold improvement vs. vancomycin: VRE 29, ratio of MIC of vancomycin and MIC of analogue
How it was run: as §1

[11] = system: E. faecalis VRE 6; assay: MIC, broth microdilution, vancomycin-resistant E. faecalis VRE 6 (VanA); format: cell-based, Enterococcus faecalis; details: for MIC: Enterococcus faecalis VRE 6 (vancomycin-resistant), read-out: MIC; for MIC-fold improvement vs. vancomycin: VRE 6, ratio of MIC of vancomycin and MIC of analogue
How it was run: as §1

[12] = system: S. aureus VSSA (ATCC 6538); assay: MIC, broth microdilution, vancomycin-sensitive S. aureus (VSSA/MSSA, ATCC 6538); format: cell-based, Staphylococcus aureus; details: for MIC: Staphylococcus aureus VSSA, read-out: MIC; for MIC-fold improvement vs. vancomycin: VSSA, ratio of MIC of vancomycin and MIC of analogue
How it was run: as §1

[13] = system: S. aureus VISA/HIP5827; assay: MIC, broth microdilution, vancomycin-intermediate S. aureus VISA HIP5827; format: cell-based, Staphylococcus aureus; details: for MIC: Staphylococcus aureus VISA/HIP5827, read-out: MIC; for MIC-fold improvement vs. vancomycin: VISA/HIP5827, ratio of MIC of vancomycin and MIC of analogue
How it was run: as §1

[14] = system: Murine leukemia (L1210) cells; assay: Cytostatic activity, L1210 cell proliferation; format: cell-based; details: mean ± SD of three experiments; highest concentration tested 250 µM; 2 days; read-out: Toxicity (IC50) L1210
How it was run: as §2

[15] = system: E. faecalis VSE 1; assay: MIC, broth microdilution, vancomycin-sensitive E. faecalis (VSE 1); format: cell-based, Enterococcus faecalis; details: for MIC: Enterococcus faecalis VSE 1 (vancomycin-sensitive), read-out: MIC; for MIC-fold improvement vs. vancomycin: VSE 1, ratio of MIC of vancomycin and MIC of analogue
How it was run: as §1

[16] = system: E. faecalis VRE 53; assay: MIC, broth microdilution, vancomycin-resistant E. faecalis VRE 53 (VanA); format: cell-based, Enterococcus faecalis; details: for MIC: Enterococcus faecalis VRE 53 (vancomycin-resistant), read-out: MIC; for MIC-fold improvement vs. vancomycin: VRE 53, ratio of MIC of vancomycin and MIC of analogue
How it was run: as §1

Row | MIC [1] | MIC-fold improvement vs. vancomycin [1] | MIC [2] | MIC-fold improvement vs. vancomycin [3] | MIC [3] | MIC-fold improvement vs. vancomycin [4] | MIC [4] | MIC-fold improvement vs. vancomycin [7] | MIC [7] | MIC-fold improvement vs. vancomycin [9] | MIC [9] | MIC [10] | MIC-fold improvement vs. vancomycin [10] | MIC [11] | MIC-fold improvement vs. vancomycin [11] | MIC [12] | MIC-fold improvement vs. vancomycin [12] | SMILES | IC50 [5] | IC50 [6] | IC50 [8] | further results
1 | 0.39 µM (≈ 0.704 µg/mL) | 256 | 12.5 µM (≈ 22.6 µg/mL) | 4 | 0.20 µM (≈ 0.361 µg/mL) | 2 | 0.39 µM (≈ 0.704 µg/mL) | 2 | 0.39 µM (≈ 0.704 µg/mL) | 2 | 0.39 µM (≈ 0.704 µg/mL) | 6.25 µM (≈ 11.3 µg/mL) | 64 | 3.13 µM (≈ 5.65 µg/mL) | 64 | 0.20 µM (≈ 0.361 µg/mL) | 4 | CN[C@H](CC(C)C)C(=O)N[C@H]1C(=O)N[C@@H](CC(N)=O)C(=O)N[C@H]2C(=O)N[C@H]3C(=O)N[C@H](C(=O)N[C@H](C(=O)NCC(=O)Nc4ccc(NS(=O)(=O)c5ccc(Cl)cc5Cl)cc4)c4cc(O)cc(O)c4-c4cc3ccc4O)[C@H](O)c3ccc(c(Cl)c3)Oc3cc2cc(c3O[C@@H]2O[C@H](CO)[C@@H](O)[C@H](O)[C@H]2O[C@H]2C[C@](C)(N)[C@H](O)[C@H](C)O2)Oc2ccc(cc2Cl)[C@H]1O [Vanc-61] | 196 µM | 87 ± 37 µM | ≥ 250 µM | MIC [13]: 0.78 µM (≈ 1.41 µg/mL); MIC-fold improvement vs. vancomycin [13]: 8; IC50 [14]: ≥ 250 µM; MIC [15]: 0.39 µM (≈ 0.704 µg/mL); MIC-fold improvement vs. vancomycin [15]: 4; MIC [16]: 6.25 µM (≈ 11.3 µg/mL); MIC-fold improvement vs. vancomycin [16]: 64
2 | 1.56 µM (≈ 2.65 µg/mL) | 64 | 6.25 µM (≈ 10.6 µg/mL) | 4 | 0.20 µM (≈ 0.34 µg/mL) | 4 | 0.20 µM (≈ 0.34 µg/mL) | 2 | 0.39 µM (≈ 0.664 µg/mL) | 2 | 0.39 µM (≈ 0.664 µg/mL) | 3.13 µM (≈ 5.33 µg/mL) | 128 | 1.56 µM (≈ 2.65 µg/mL) | 128 | 0.39 µM (≈ 0.664 µg/mL) | 2 | CCOc1ccc(-c2ccc(NC(=O)CNC(=O)C3NC(=O)C4NC(=O)C(NC(=O)C5NC(=O)C(CC(N)=O)NC(=O)C(NC(=O)C(CC(C)C)NC)C(O)c6ccc(c(Cl)c6)Oc6cc5cc(c6OC5OC(CO)C(O)C(O)C5OC5CC(C)(N)C(O)C(C)O5)Oc5ccc(cc5Cl)C4O)c4ccc(O)c(c4)-c4c(O)cc(O)cc43)cc2)cc1 (centres unmarked) [Vanc-86] | 5 µM | 9.8 ± 5.8 µM | 1 ± 0.2 µM | MIC-fold improvement vs. vancomycin [2]: 64; MIC [13]: 0.78 µM (≈ 1.33 µg/mL); MIC-fold improvement vs. vancomycin [13]: 8; IC50 [14]: 3 ± 2.3 µM; MIC [15]: ≤0.05 µM; MIC-fold improvement vs. vancomycin [15]: ≥32; MIC [16]: 12.5 µM (≈ 21.3 µg/mL); MIC-fold improvement vs. vancomycin [16]: 32
3 | 3.13 µM (≈ 5.32 µg/mL) | 32 | 25 µM (≈ 42.5 µg/mL) | 2 | 0.39 µM (≈ 0.663 µg/mL) | 2 | 0.39 µM (≈ 0.663 µg/mL) | 2 | 0.39 µM (≈ 0.663 µg/mL) | 0.25 | 3.13 µM (≈ 5.32 µg/mL) | 25 µM (≈ 42.5 µg/mL) | 16 | 6.25 µM (≈ 10.6 µg/mL) | 32 | 0.78 µM (≈ 1.33 µg/mL) | 1 | CN[C@H](CC(C)C)C(=O)N[C@H]1C(=O)N[C@@H](CC(N)=O)C(=O)N[C@H]2C(=O)N[C@H]3C(=O)N[C@H](C(=O)N[C@H](C(=O)NCCNC(=O)CC(c4ccccc4)c4ccccc4)c4cc(O)cc(O)c4-c4cc3ccc4O)[C@H](O)c3ccc(c(Cl)c3)Oc3cc2cc(c3O[C@@H]2O[C@H](CO)[C@@H](O)[C@H](O)[C@H]2O[C@H]2C[C@](C)(N)[C@H](O)[C@H](C)O2)Oc2ccc(cc2Cl)[C@H]1O [Vanc-47] | 199 µM | 106 ± 14 µM | 240 ± 4 µM | MIC-fold improvement vs. vancomycin [2]: 16; MIC [13]: 1.56 µM (≈ 2.65 µg/mL); MIC-fold improvement vs. vancomycin [13]: 4; IC50 [14]: ≥ 250 µM; MIC [15]: 0.78 µM (≈ 1.33 µg/mL); MIC-fold improvement vs. vancomycin [15]: 2; MIC [16]: 50 µM (≈ 85 µg/mL); MIC-fold improvement vs. vancomycin [16]: 8
